Measured values published in patent publication US10272045B2 (priority 2015, dated 2019).

What was measured:
[1] = dog, in vivo
[2] = human, in vivo, cited from earlier work

## O=[As]O[As]=O (stereo not drawn) [SV100]
[1]
  oral absorption: very limited absorption
  oral bioavailability (F^b %): < 10%

## arsenic acid [Asv]
[2]
  level in plasma: relatively low levels

## arsenious acid [AsIII]
[2]; 0.15 mg/kg
  time to peak plasma concentration (end of infusion): 2 h
[2]
  accumulation, Day 25 versus Day 1 of Cycle 1: ~2 fold
  mean elimination half-life: 10 to 14 h
  renal clearance: 9 L/h
  total clearance: 49 L/h
  volume of distribution (Vss): 562 L
